Experimental data: patent EP3909969A1, “PEPTIDE FOR HYDROGEL FORMATION” (Freie Universität Berlin, priority 2020, dated 2021)

Tested on: NIH/3T3 embryonic mouse fibroblast cells
Test: Cytotoxicity assay of hydrogel cultured cells by Cell Counting Kit-8 (CCK-8)
Assay type: cell-based
Conditions: hydrogel at 0.3 wt%, after 24 h, NIH/3T3 cells
Procedure: NIH/3T3 embryonic mouse fibroblast cells were cultured in DMEM culture medium (Lonza, 4,5 g/L glucose, 10 % FCS, 1 % penicillin/streptomycin) in a humidified incubator (5 % CO2, 37°C). The cells were grown in 175 cm^2 cell culture flaks and medium was changed thrice a week. Upon confluency of 70 % - 80 % the culture was subcultured according to the detected cell number.
To determine whether different peptide hydrogel compositions would be tolerated by the cells CCK-8 was used to conduct viability of cells during a 3 days cell culture. A suspension of NIH/3T3 cells in DMEM (4.5 g/L, 10 % FCS, 1 % penicillin/streptomycin) was seeded in a transparent 96-well plate with a density of 10.000 cells in an overall volume of 100 µL per well containing the respecting hydrogels. 10 µL of 1 % (w/v) SDS was added to the respective wells of positive control and the plate was further incubated for 24 h and 72 h at 37°C and 5 % CO2 respectively. After each time points 10 µL of CCK-8 solution were added to each well and allowed to incubate for 2 h in a humidified incubator at 37°C. During this time dehydrogenases in viable cells reduces WST-8 tetrazolium to formazan, which will be detected by measuring the absorbance at 450 nm. Absorbance was measured by using a Tecan Infinite 200 Pro microplate reader. Three experiments were performed in triplicates per hydrogel candidate (n=3). […]

In the case of `CC(C)C[C@H](NC(=O)[C@H](CCC(=O)O)NC(=O)[C@H](CCCCN)NC(=O)[C@H](CCCCN)NC(=O)[C@H](CC(C)C)NC(=O)[C@H](C)NC(=O)[C@H](C)NC(=O)[C@H](CC(C)C)NC(=O)[C@H](CCC(=O)O)NC(=O)[C@H](CCCCN)NC(=O)[C@H](CCCCN)NC(=O)[C@H](CC(C)C)NC(=O)[C@H](C)NC(=O)[C@H](C)NC(=O)[C@H](CC(C)C)NC(=O)[C@H](CCC(=O)O)NC(=O)[C@H](CCCCN)NC(=O)[C@H](CCCCN)NC(=O)[C@H](CC(C)C)NC(=O)[C@H](C)NC(=O)[C@H](C)NC(=O)[C@H](CC(C)C)NC(=O)[C@H](CCC(=O)O)NC(=O)[C@H](CCCCN)NC(=O)[C@H](CCCCN)NC(=O)[C@H](CC(C)C)NC(=O)c1ccccc1N)C(=O)O` [hFF03], the “viability compared to the control” value is reported as “higher than 160%”.
